Assay results from the supplement of paper PMC10307832.

Compound: O=C(CCCCCCC(=O)Nc1ccccc1)NO [Vorinostat] + CC(=O)Nc1cccc(-n2c(=O)n(C3CC3)c(=O)c3c(Nc4ccc(I)cc4F)n(C)c(=O)c(C)c32)c1 [Trametinib] (partner 0.02 µM)
Assay: relative viability (nuclei count vs DMSO), 5 days (fraction); higher = more cells survive
Method in brief: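 Values are medians from duplicate plates. Each reflects relative viability, defined as the nuclei count of treated wells over that of vehicle wells. Lung cancer cell lines in 1536-well plates were pin-tool dosed one day after seeding with one drug alone or with a fixed anchor-drug dose plus five library-drug doses (not always all listed) in √10 steps, then fixed, stained and imaged at 4× after 5 days.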

Cell Line	relative viability (first compound 0.253 µM)	relative viability (first compound 0.8 µM)	relative viability (first compound 2.53 µM)	relative viability (first compound 8 µM)
201T	0.734	0.735	0.69	0.267
A-427	0.82	0.718	0.361	0.166
BEN	0.928	0.659	0.367	0.149
CAL-12T	0.433	0.499	0.223	0.0898
COR-L23	0.79	0.447	0.159	0.0825
COR-L 105	0.546	0.542	0.343	0.288
ChaGo-K-1	0.973	0.792	0.5	0.193
EKVX	0.401	0.337	0.18	0.115
EMC-BAC-2	0.836	0.687	0.292	0.154
EPLC-272H	0.296	0.269	0.168	0.11
H3255	0.819	0.709	0.576	0.227
HARA	1.06	0.576	0.18	0.0921
HCC-15	0.377	0.338	0.147	0.0834
HCC-44	1.11	0.968	0.91	0.286
HCC-78	0.774	0.495	0.201	0.181
HCC-366	0.412	0.333	0.062	0.0267
HCC-827	0.712	0.642	0.351	0.163
HOP-62	0.509	0.406	0.16	0.0861
LC-2-ad	0.936	0.776	0.435	0.221
LCLC-97TM1	0.238	0.207	0.142	0.074
LCLC-103H	0.804	0.7	0.473	0.337
LK-2	0.893	0.496	0.167	0.0907
LOU-NH91	0.883	0.857	0.754	0.455

Cell Line	relative viability (first compound 0.253 µM)	relative viability (first compound 0.8 µM)	relative viability (first compound 2.53 µM)	relative viability (first compound 8 µM)
LU99A	0.614	0.54	0.33	0.138
LXF-289	0.709	0.639	0.424	0.0759
NCI-H23	0.606	0.405	0.166	0.129
NCI-H322M	0.595	0.501	0.552	0.408
NCI-H358	0.171	0.149	0.0954	0.0859
NCI-H441	0.555	0.602	0.226	0.127
NCI-H460	0.231	0.0799	0.0298	0.0227
NCI-H520	0.959	0.549	0.212	0.124
NCI-H596	0.876	0.632	0.426	0.235
NCI-H647	0.642	0.497	0.164	0.0479
NCI-H650	1.24	0.839	0.243	0.111
NCI-H661	0.767	0.614	0.303	0.301
NCI-H727	0.369	0.392	0.27	0.267
NCI-H838	0.631	0.481	0.279	0.112
NCI-H1355	0.484	0.331	0.231	0.131
NCI-H1395	1.23	0.964	0.777	0.412
NCI-H1437	0.481	0.368	0.23	0.155
NCI-H1651	0.869	0.76	0.343	0.062
NCI-H1666	0.894	0.805	0.561	0.439
NCI-H1734	0.721	0.713	0.5	0.117
NCI-H1755	0.791	0.77	0.602	0.219
NCI-H1792	0.292	0.257	0.145	0.0464
NCI-H1793	0.383	0.34	0.3	0.182

Cell Line	relative viability (first compound 0.253 µM)	relative viability (first compound 0.8 µM)	relative viability (first compound 2.53 µM)	relative viability (first compound 8 µM)
NCI-H1915	0.36	0.291	0.227	0.101
NCI-H1944	0.481	0.424	0.292	0.0999
NCI-H1975	0.395	0.311	0.123	0.106
NCI-H1993	0.649	0.61	0.548	0.36
NCI-H2009	0.336	0.311	0.237	0.119
NCI-H2023	0.65	0.422	0.184	0.07
NCI-H2085	0.587	0.503	0.285	0.155
NCI-H2087	0.202	0.158	0.141	0.087
NCI-H2126	0.612	0.533	0.296	0.166
NCI-H2170	0.926	0.921	0.578	0.108
NCI-H2228	0.67	0.464	0.219	0.101
NCI-H2347	0.242	0.327	0.226	0.203
NCI-H2405	0.87	0.872	0.486	0.141
NCI-H3122	0.168	0.265	0.298	0.118
PC-3 [JPC-3]	0.695	0.644	0.405	0.348
PC-14	0.785	0.483	0.155	0.0461
RERF-LC-KJ	0.897	0.732	0.308	0.201
SK-LU-1	0.495	0.474	0.41	0.205
SK-MES-1	0.728	0.71	0.454	0.239
SW 900	0.739	0.703	0.249	0.129
SW 1573	0.709	0.596	0.357	0.0536
UMC-11	0.845	0.245	0.0839	0.0678
